Data reported in paper PMC4884932, “Selective brain penetrable Nurr1 transactivator for treating Parkinson's disease” (Oncotarget, 2016).

Columns and labels:
[1] = tested on: tyrosine hydroxylase (TH)-positive DA neurons; experiment: DA neuron survival in primary ventral midbrain (VMB) culture; assay type: cell-based, mouse; conditions: co-treatment with IRX4204
Method: (§1) Ventral midbrain (VMB) from E13.5-14.5 C57BL/6 mouse embryos were dissected, triturated and plated on poly-D-lysine coated 12 well plates or glass coverslips with the serum-free chemically-defined Neurobasal medium, supplemented with 2% B27, 0.5mM L-glutamine, 50I.U./ml penicillin and 50μg/ml streptomycin (Gibco-BRL). […] For each time point, cells were washed once with phosphate buffered saline and fixed with 4% paraformaldehyde for TH immunofluorescent staining. For cell counting, 10 frames were randomly captured from each well using a Leica fluorescent microscope and a minimum of four replicates for each dose and each time point were analyzed for each experiment.

primary VMB neurons = experiment: Nurr1 downstream gene expression in VMB neurons (real time PCR); assay type: cell-based, mouse; conditions: HX531 100nM with 1nM IRX4204
Method: as §1
Total RNA from VMB neurons or rat substantia nigra were isolated using the RNeasy Mini Kit from Qiagen (Valencia, CA) and 1μg of total RNA was reverse transcribed using SuperScript III first-strand synthesis supermix for qRT-PCR from Invitrogen (Carlsbad, CA) according to the manufacturer's instruction. Quantitative RT-PCR was performed using Maxima SYBR Green master mix (Fermentas) in ABI Prism 7900HT in four replicates with primers amplifying the target genes. Expression level of actin was used as an internal control. Data were normalized using the 2^−ΔΔCt method. Levels of target gene mRNAs were expressed relative to those in vehicle control groups and plotted in GraphPad Prism.

CN1c2ccc([N+](=O)[O-])cc2N=C(c2ccc(C(=O)O)cc2)c2cc3c(cc21)C(C)(C)CCC3(C)C [HX531, reference compound]
effect on IRX4204-promoted survival of TH-positive DA neurons [1]: completely blocked | effect on IRX4204-mediated increased expression of DAT (primary VMB neurons): totally abolished | effect on IRX4204-mediated increased expression of DDC (primary VMB neurons): totally abolished
